Patent US20180044628A1, “Method for Biofilm Control and Treatment” (priority 2015, published 2018)

Assays:
Type in all cases: cell-based, Bacillus subtilis NCIB 3610
[1] = tested on: Bacillus subtilis biofilms; test: Biofilm growth oscillations in a microfluidic device, followed by time-lapse phase contrast microscopy and image differencing
Experimental: Growth conditions. The biofilms were grown using MSgg medium^16. It contains 5 mM potassium phosphate buffer (pH 7.0), 100 mM MOPS buffer (pH 7.0, adjusted using NaOH), 2 mM MgCl2, 700 μM CaCl2, 50 μM MnCl2, 100 μM FeCl3, 1 μM ZnCl2, 2 μM thiamine HCl, 0.5% (v/v) glycerol and 0.5% (w/v) monosodium glutamate. The MSgg medium was made from stock solutions on the day of the experiment, and the stock solution for glutamate was made each week.
Microfluidics. The CellASIC ONIX Microfluidic Platform and the Y04D microfluidic plate (EMD Millipore) were used. It provides unconventionally large chambers, allowing the formation of colonies containing millions of cells, yet still leaves room for media flow. Media flow in the microfluidic chamber was driven by a pneumatic pump from the CellASIC ONIX Microfluidic Platform, and the pressure from the pump was kept stable during the course of the oscillation. In most of the experiments, a pump pressure of 1 psi was used with only one media inlet open (there are 6 media inlets in the Y04D plate), which corresponds to a flow speed of ˜16 μm/s in the growth chamber.
On the day before the experiment, cells from −80° C. glycerol stock were streaked onto LB agar plate and incubated at 37° C. for overnight. The next day morning, a single colony was picked from the plate and inoculated into 3 ml of LB broth in a 50 ml conical tube, and then incubated in 37° C. shaker. After 2.5 hours of incubation, the cell culture was centrifuged at 2100 rcf for 1 min, and then the cell pellet was re-suspended in MSgg and then immediately loaded into microfluidics. After the loading, cells in the microfluidic chamber were incubated at 37° C. for 90 min, and then the temperature was kept at 30° C. for the rest of the experiment.
Time-Lapse Microscopy. The growth of the biofilms was recorded using phase contrast microscopy. The microscopes used were Olympus IX81 and IX83, and DeltaVision PersonalDV. To image entire biofilms, 10× lens objectives were used in most of the experiments. Images were taken every 10 min Whenever fluorescence images were recorded, the minimum exposure time was used that still provided a good signal-to-noise ratio.
(§1) Biofilm growth rate. ImageJ (National Institutes of Health) and MATLAB (MathWorks) were used for image analysis. In house software was also developed to perform colony detection and quantification of colony expansion. Multiple methods of colony detection were used to ensure the accuracy of the analysis. To detect regions of expansion in a biofilm, image differencing was performed on snapshots of the biofilm from time-lapse microscopy videos. Specifically, the difference between two consecutive phase contrast images (taken 10 min apart) was calculated by finding the absolute difference between each pixel in each image. […] The intensity values from the stack correlate with the expansion inside the biofilm. The growth area was determined by converting difference images to binary images and then measuring the area of the colony growth region (white pixels). To measure cell replication time, the length and division of individual cells were tracked in the biofilm periphery (FIG. 8b).

nasA promoter = test: PnasA-YFP reporter of glutamine limitation in biofilms, with constitutive Phyperspank-CFP as control
Experimental: FIG. 2a. […] Glutamine limitation was monitored using YFP expressed from the nasA promoter, which is activated upon glutamine limitation^21. FIG. 2b. […] FIG. 2c. Growth area before and after addition of 1 mM glutamine to an oscillating colony. FIG. 2d. […] FIG. 2e. […] Scale bar represents 100 μm. FIG. 2f. Growth area of an oscillating colony before and after addition of 30 mM glutamate (shading). FIG. 2g.
To determine whether biofilms experience glutamine limitation, expression of nasA, one of several genes activated in response to a lack of glutamine^21, was measured.

[2] = tested on: Bacillus subtilis biofilms; test: Cell death (Sytox Green) and cell growth (difference images) within biofilms under external attack
Experimental: Scale bar represents 50 μm. […] Error bars represent standard deviations.
Scale bar represents 100 μm.
as §1

[3] = 1 mM glutamine added to growth media

N [ammonium]
colony growth after removal of external ammonium ([1]; additional ammonium (13 mM) suddenly removed from the media): growth in the biofilm periphery halted
effect on periodic halting in biofilm expansion ([1]; media supplemented with 1 mM ammonium): eliminated the periodic halting in biofilm expansion
expression from constitutive reporter (Phyperspank-CFP + 1 mM IPTG) (nasA promoter; 1 mM external ammonium added): does not affect expression from a constitutive reporter
expression from the PnasA-YFP reporter (nasA promoter; 1 mM external ammonium added): represses expression from the PnasA-YFP reporter

O=C(N[C@H](CO)[C@H](O)c1ccc([N+](=O)[O-])cc1)C(Cl)Cl [chloramphenicol]
growth of interior cells after attack ([2]; wild type biofilm, chloramphenicol 5 μg/ml (FIG. 12)): growth of interior cells was observed

N[C@@H](CCC(=O)O)C(=O)[O-].[Na+] [glutamate, monosodium glutamate]
effect on biofilm oscillations ([1]; 30 mM glutamate added to MSgg medium, oscillating colony): not quenched
effect on biofilm oscillations ([1]; glutamate increased by 5 times of normal MSgg levels): leads to quenching of the oscillation

NC(=O)CC[C@H](N)C(=O)O [glutamine]
effect on periodic halting of biofilm growth (oscillations) ([1]; 1 mM glutamine added to MSgg medium, oscillating colony): eliminated periodic halting of biofilm growth
expression of constitutive promoter (Phyperspank-CFP + 1 mM IPTG) (nasA promoter; [3]): did not affect expression of a constitutive promoter
nasA promoter expression (PnasA-YFP) (nasA promoter; [3]): reduced nasA promoter expression

OCC(O)CO [glycerol]
effect on biofilm oscillations ([1]; glycerol increased by 5 times of normal MSgg levels): does not

OO [hydrogen peroxide]
killing of biofilm ([2]; GDH overexpression strain (Phyp-RocG, induced with 1 mM IPTG) exposed to hydrogen peroxide): more effective global killing throughout the biofilm
cell death (Sytox marker) in biofilm ([2]; wild type biofilm, H2O2 2% w/w (FIG. 4b) or 0.15% v/v (FIG. 12)): increased cell death was observed predominantly in the biofilm periphery
growth of interior cells after attack ([2]; wild type biofilm, H2O2 2% w/w (FIG. 4c) or 0.15% v/v (FIG. 12)): led to growth of interior cells
